Laboratory results as given in ChEMBL document CHEMBL1201862, “PubChem BioAssay data set” (2004).
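Each compound was tested at five concentrations against cells in 96-well plates for 48 hours. GI50 is the concentration that inhibits growth by half.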 Calls of active or inactive are those of the source. Rule as the data show it: active = GI50 up to about 1.1 µM and inactive = higher.

Experiments:
Test in all cases: growth of human tumour cells (NCI), 48 h
[1] = system: MDA-MB-435
[2] = system: DMS-273
[3] = system: NCI-H23
[4] = system: SNB-78
[5] = system: Malme-3M
[6] = system: MDA-MB-231
[7] = system: NCI-H460
[8] = system: EKVX
[9] = system: SF-268
[10] = system: UO-31
[11] = system: NCI-H522
[12] = system: SF-295
[13] = system: HCT-15
[14] = system: SW-620
[15] = system: T47D
[16] = system: SK-OV-3
[17] = system: OVCAR-4
[18] = system: DU-145

Structure (SMILES) | GI50 [1] | GI50 [2] | GI50 [3] | GI50 [4] | GI50 [5] | GI50 [6] | GI50 [7] | GI50 [8] | GI50 [9] | GI50 [10] | GI50 [11] | GI50 [12] | GI50 [13] [µM] | GI50 [14] | GI50 [15] | GI50 [16] | GI50 [17] | GI50 [18]
COc1ccc2c[n+](C)c3c4cc(OC)c(OC)cc4ccc3c2c1 | 13.7 µM (inactive) | 2.28 µM (inactive) | 3.12 µM (inactive) | 12.2 µM (inactive) | 7.6 µM (inactive) | 0.944 µM (active) | 3.91 µM (inactive) | 13.1 µM (inactive) | 1.79 µM (inactive) | 44 µM (inactive) | 2.03 µM (inactive) | 5.13 µM (inactive) | > 41.9 | 2.23 µM (inactive) | 2.73 µM (inactive) | 2.99 µM (inactive) | 8.09 µM (inactive) | 10.3 µM (inactive)
Cn1c(=O)oc2cc(C3CCC(=O)N3Cc3csc(-c4ccccc4)n3)ccc21 (centres undefined) | – | 89.5 µM (inactive) | > 100 µM (inactive) | > 100 µM (inactive) | > 100 µM (inactive) | – | > 100 µM (inactive) | > 100 µM (inactive) | > 100 µM (inactive) | 52.5 µM (inactive) | > 100 µM (inactive) | > 100 µM (inactive) | > 100 | > 100 µM (inactive) | – | > 100 µM (inactive) | > 100 µM (inactive) | –
Cc1ccccc1C1CC(c2ccccc2)=NO1 (centres undefined) | – | > 100 µM (inactive) | > 100 µM (inactive) | > 100 µM (inactive) | > 100 µM (inactive) | – | > 100 µM (inactive) | > 100 µM (inactive) | > 100 µM (inactive) | > 100 µM (inactive) | > 100 µM (inactive) | > 100 µM (inactive) | > 100 | > 100 µM (inactive) | – | > 100 µM (inactive) | > 100 µM (inactive) | –
Cc1c(C2Cc3ccccc3N2)c2ccccc2n1C (centres undefined) | – | > 100 µM (inactive) | > 100 µM (inactive) | > 100 µM (inactive) | > 100 µM (inactive) | – | 79.1 µM (inactive) | > 100 µM (inactive) | > 100 µM (inactive) | > 100 µM (inactive) | > 100 µM (inactive) | > 100 µM (inactive) | 36.3 | > 100 µM (inactive) | – | > 100 µM (inactive) | > 100 µM (inactive) | –
CCc1cccc(C)c1NC(=O)CCc1n[nH]c(=S)o1 | – | 37.8 µM (inactive) | > 100 µM (inactive) | > 100 µM (inactive) | > 100 µM (inactive) | – | > 100 µM (inactive) | > 100 µM (inactive) | > 100 µM (inactive) | > 100 µM (inactive) | > 100 µM (inactive) | > 100 µM (inactive) | 55.1 | 13.3 µM (inactive) | – | > 100 µM (inactive) | > 100 µM (inactive) | –
O=C1NC2OC(CO)C(O)C(O1)C2O (centres undefined) | – | > 100 µM (inactive) | > 100 µM (inactive) | > 100 µM (inactive) | > 100 µM (inactive) | – | > 100 µM (inactive) | > 100 µM (inactive) | > 100 µM (inactive) | > 100 µM (inactive) | > 100 µM (inactive) | > 100 µM (inactive) | > 100 | > 100 µM (inactive) | – | > 100 µM (inactive) | > 100 µM (inactive) | –
O=C1CCC(=O)N2CCCCN12 | – | > 100 µM (inactive) | > 100 µM (inactive) | > 100 µM (inactive) | > 100 µM (inactive) | – | > 100 µM (inactive) | > 100 µM (inactive) | > 100 µM (inactive) | > 100 µM (inactive) | > 100 µM (inactive) | > 100 µM (inactive) | > 100 | > 100 µM (inactive) | – | > 100 µM (inactive) | > 100 µM (inactive) | –
C/C(CC(=O)Nc1ccc([N+](=O)[O-])cc1)=N\NC(N)=O | – | > 66.5 µM (inactive) | > 100 µM (inactive) | > 100 µM (inactive) | > 100 µM (inactive) | – | > 100 µM (inactive) | > 100 µM (inactive) | 98.2 µM (inactive) | > 100 µM (inactive) | > 81.7 µM (inactive) | > 100 µM (inactive) | 27 | > 100 µM (inactive) | – | > 100 µM (inactive) | > 100 µM (inactive) | –
CCOC(=O)Cc1csc(Nc2ccccc2[N+](=O)[O-])n1 | – | 99.1 µM (inactive) | > 100 µM (inactive) | > 100 µM (inactive) | > 100 µM (inactive) | – | > 100 µM (inactive) | > 100 µM (inactive) | > 100 µM (inactive) | > 100 µM (inactive) | > 100 µM (inactive) | > 100 µM (inactive) | > 56.6 | > 57.5 µM (inactive) | – | > 100 µM (inactive) | > 100 µM (inactive) | –
Cc1cccc(C(C)(C)C)c1NC(=O)CCc1n[nH]c(=S)o1 | – | 40.9 µM (inactive) | > 100 µM (inactive) | > 100 µM (inactive) | > 100 µM (inactive) | – | > 100 µM (inactive) | > 100 µM (inactive) | > 100 µM (inactive) | > 100 µM (inactive) | > 100 µM (inactive) | > 100 µM (inactive) | 21.7 | 15.9 µM (inactive) | – | > 100 µM (inactive) | > 100 µM (inactive) | –
O=C(Cc1nc2ccccc2s1)C(=O)Nc1ccc(Cl)cc1 | – | > 100 µM (inactive) | > 100 µM (inactive) | > 100 µM (inactive) | > 100 µM (inactive) | – | > 100 µM (inactive) | > 100 µM (inactive) | > 100 µM (inactive) | > 100 µM (inactive) | > 100 µM (inactive) | > 100 µM (inactive) | > 100 | > 100 µM (inactive) | – | > 100 µM (inactive) | > 100 µM (inactive) | –
CC1C=C(OC(=O)c2ccccc2)C(=O)C(n2cc(F)c(=O)[nH]c2=O)O1 (centres undefined) | – | 42.8 µM (inactive) | 53.6 µM (inactive) | > 100 µM (inactive) | 51.2 µM (inactive) | – | 19.5 µM (inactive) | > 100 µM (inactive) | > 100 µM (inactive) | 87.7 µM (inactive) | > 100 µM (inactive) | > 100 µM (inactive) | 50.6 | > 100 µM (inactive) | – | > 100 µM (inactive) | 53.2 µM (inactive) | –
CCOC(=O)C12CCCC1(O)N(NC(=O)OC(C)(C)C)C(C)=C2C(=O)OC (centres undefined) | – | > 100 µM (inactive) | > 100 µM (inactive) | > 100 µM (inactive) | > 100 µM (inactive) | – | > 100 µM (inactive) | > 100 µM (inactive) | > 100 µM (inactive) | > 100 µM (inactive) | 97.3 µM (inactive) | > 100 µM (inactive) | > 100 | > 100 µM (inactive) | – | > 100 µM (inactive) | > 100 µM (inactive) | –
NC(N)NCCCc1cn2c(n1)C1CCCN1C(=O)C2Cc1ccccc1 (centres undefined) | – | > 100 µM (inactive) | > 100 µM (inactive) | > 100 µM (inactive) | > 100 µM (inactive) | – | > 100 µM (inactive) | > 100 µM (inactive) | > 100 µM (inactive) | > 100 µM (inactive) | > 100 µM (inactive) | > 100 µM (inactive) | > 100 | > 100 µM (inactive) | – | > 100 µM (inactive) | > 100 µM (inactive) | –
Cc1cccc(C)c1NC(=O)CCc1nnc2s/c(=C\c3ccc(Cl)cc3)c(=O)n12 | – | 54.6 µM (inactive) | > 100 µM (inactive) | 70 µM (inactive) | > 100 µM (inactive) | – | > 100 µM (inactive) | > 100 µM (inactive) | > 100 µM (inactive) | > 100 µM (inactive) | > 100 µM (inactive) | 70.6 µM (inactive) | 19.1 | 21.2 µM (inactive) | – | 31.8 µM (inactive) | > 100 µM (inactive) | –
NC(CCCCNCc1ccccc1O)C(=O)O (centres undefined) | – | > 100 µM (inactive) | > 100 µM (inactive) | > 100 µM (inactive) | > 100 µM (inactive) | – | > 100 µM (inactive) | > 100 µM (inactive) | > 100 µM (inactive) | > 100 µM (inactive) | > 100 µM (inactive) | > 100 µM (inactive) | > 100 | > 100 µM (inactive) | – | > 100 µM (inactive) | > 100 µM (inactive) | –
CCC1C(C(=O)Nc2ccccc2C)=C(C)NC(C)=C1c1ccccc1C (centres undefined) | – | > 49 µM (inactive) | > 100 µM (inactive) | > 100 µM (inactive) | > 100 µM (inactive) | – | > 44.1 µM (inactive) | > 100 µM (inactive) | > 40.6 µM (inactive) | > 100 µM (inactive) | > 100 µM (inactive) | > 100 µM (inactive) | > 40.1 | > 43.1 µM (inactive) | – | > 100 µM (inactive) | > 100 µM (inactive) | –
O=CN1CCN(C=S)CC1 | – | > 100 µM (inactive) | > 100 µM (inactive) | > 100 µM (inactive) | > 100 µM (inactive) | – | > 100 µM (inactive) | > 100 µM (inactive) | > 100 µM (inactive) | > 100 µM (inactive) | > 100 µM (inactive) | > 100 µM (inactive) | > 100 | > 100 µM (inactive) | – | > 100 µM (inactive) | > 100 µM (inactive) | –
Cc1ccc2c(c1)SC(c1cc3c(cc1Br)OCO3)S2 (centres undefined) | – | 20 µM (inactive) | > 31.6 µM (inactive) | > 31.6 µM (inactive) | > 31.6 µM (inactive) | – | > 31.6 µM (inactive) | > 31.6 µM (inactive) | > 31.6 µM (inactive) | 19.7 µM (inactive) | 24.7 µM (inactive) | > 31.6 µM (inactive) | 25.4 | 86.1 µM (inactive) | – | > 31.6 µM (inactive) | > 31.6 µM (inactive) | –
CS(=O)(=O)Oc1cccc(/C=N/N=C(\N)NO)c1 | – | 19.9 µM (inactive) | 27.2 µM (inactive) | > 100 µM (inactive) | 23.1 µM (inactive) | – | 24.8 µM (inactive) | 34 µM (inactive) | 24.2 µM (inactive) | 22.8 µM (inactive) | 26.2 µM (inactive) | 49.3 µM (inactive) | 35.1 | 19.9 µM (inactive) | – | 27 µM (inactive) | 18 µM (inactive) | –
